Assay results from the Deep4Chem optical property database.
Each block holds one compound with its values, some of them ahead of it.

Assay: solvent given as SMILES

SMILES: CC(NC(=O)OC(C)(C)C)C(=O)OCc1ccc2c3cccc4cccc(c5cccc1c52)c43 (stereo not given)
emission maximum (in CCO): 443 nm

SMILES: CN(C)c1ccc(/C=C/C=C/c2ccc([N+](=O)[O-])c(O)c2)cc1
emission maximum (in C1CCCCC1): 530 nm | emission maximum (in C1CCOC1): 686 nm | emission maximum (in C1COCCO1): 634 nm | emission maximum (in CCCCCCC): 523 nm | emission maximum (in Cc1ccccc1): 609 nm

SMILES: O=Cc1ccc(C2=C3C=c4c(oc5ccccc45)=[N+]3[B-](F)(F)n3c2cc2c4ccccc4oc23)cc1
emission maximum (in C1CCCCC1): 612 nm | emission maximum (in C1CCOC1): 615 nm | emission maximum (in CC#N): 611 nm | emission maximum (in CCOC(C)=O): 610 nm | emission maximum (in CN(C)C=O): 615.5 nm | emission maximum (in CO): 609.5 nm | emission maximum (in Cc1ccccc1): 620.5 nm | emission maximum (in ClCCl): 618.5 nm

SMILES: c1ccc(-c2nc(-c3ccccc3)nc(-c3ccc(-n4c5ccccc5c5c6oc7ccccc7c6ccc54)cc3)n2)cc1
emission maximum (in C1CCCCC1): 393.5 nm | emission maximum (in C1CCOC1): 473.68 nm | emission maximum (in Cc1ccccc1): 430.34 nm | emission maximum (in O=P(c1ccccc1)(c1ccccc1)c1ccccc1Oc1ccccc1P(=O)(c1ccccc1)c1ccccc1): 429.14 nm

SMILES: COc1ccc(C#Cc2nc(C#Cc3ccc(OC)cc3)c(C#Cc3ccc(OC)cc3)c(C#Cc3ccc(OC)cc3)c2C#Cc2ccc(OC)cc2)cc1
emission maximum (in ClCCl): 459 nm

SMILES: CC(=O)OCCN1C(=O)c2cccc3c(Oc4ccc(C=O)cc4)ccc(c23)C1=O
emission maximum (in ClC(Cl)Cl): 411 nm

SMILES: c1cc2ccc1CCCc1cc3c(cc1CCCc1ccc(c4nsnc14)CCC3)CCC2
emission maximum (in C1CCCCC1): 496 nm | emission maximum (in CC#N): 534 nm | emission maximum (in ClC(Cl)Cl): 531 nm

SMILES: CCC1(CC)c2cc(-c3ccc(-c4ccc5c(c4)C(CC)(CC)c4cc(C(C)(C)C)ccc4-5)cc3)ccc2-c2ccc(C(C)(C)C)cc21
emission maximum (in CO): 383.9 nm

SMILES: CC(C)(C)c1ccc2c(c1)c1cc(C(C)(C)C)ccc1n2-c1ccc(C#Cc2ccc(C#Cc3ccc(C=C(C#N)C#N)cc3)cc2)cc1
emission maximum (in ClCCl): 474 nm

SMILES: CC1=C(c2cccs2)C(C)=[N+]2C1=C(c1ccc(OS(=O)(=O)c3ccc([N+](=O)[O-])cc3[N+](=O)[O-])cc1)c1c(C)c(-c3cccs3)c(C)n1[B-]2(F)F
emission maximum (in CO): 609 nm | emission maximum (in Cc1ccccc1): 608 nm | emission maximum (in ClCCl): 607 nm

SMILES: Cc1cc(C)c([B-]2(c3c(C)cc(C)cc3C)[O+]=P(c3ccccc3)(c3ccccc3)c3cc(-c4ccc(N(C)C)cc4)sc3-c3sc(-c4ccc(N(C)C)cc4)cc32)c(C)c1
emission maximum (in C1CCOC1): 552 nm

SMILES: Fc1ccc(-c2nc3n(c2-c2ccncc2)CCS3)cc1
emission maximum (in C1CCCCC1): 397.5 nm | emission maximum (in C1CCOC1): 414 nm | emission maximum (in C1COCCO1): 412 nm | emission maximum (in CC#N): 420 nm | emission maximum (in CC(C)(C)O): 420 nm | emission maximum (in CC(C)=O): 418 nm | emission maximum (in CC(C)O): 436 nm | emission maximum (in CCO): 438 nm | emission maximum (in CCOC(C)=O): 414 nm | emission maximum (in CN(C)C=O): 426 nm | emission maximum (in CNC=O): 446 nm | emission maximum (in CO): 439 nm | emission maximum (in CS(C)=O): 436 nm | emission maximum (in Cc1ccc(C)cc1): 411.5 nm | emission maximum (in Cc1ccccc1): 412 nm | emission maximum (in ClC(Cl)Cl): 413.5 nm | emission maximum (in ClCCl): 415 nm | emission maximum (in O): 415 nm | emission maximum (in OCCO): 440.5 nm | emission maximum (in c1ccncc1): 434 nm

More lines, now with the values ahead:

emission maximum (in C1CCOC1): 345 nm
SMILES: C1=C(c2ccccc2)C(c2ccccc2)=CC1c1ccccc1

emission maximum (in ClCCl): 384 nm
SMILES: C[Si]1(C)c2ccccc2-c2cc3c(cc21)-c1ccccc1[Si]3(C)C

emission maximum (in ClC(Cl)Cl): 447 nm
SMILES: Cc1cccc(C2=Cc3c4ccccc4c4ccccc4[n+]3[B-](F)(F)O2)c1

emission maximum (in ClCCl): 546 nm
SMILES: Clc1ccc(N2c3sc4ccccc4c3Sc3c2sc2ccccc32)cc1

emission maximum (in ClC(Cl)Cl): 676 nm
SMILES: CN1C(=CC2=C([S-])C(=Cc3sc4ccccc4[n+]3C)C2=O)C(C)(C)c2ccccc21

emission maximum (in C1CCOC1): 338 nm
SMILES: F[Si-](F)(c1ccccc1)(c1ccccc1)c1cccc2ccccc12

emission maximum (in C1COCCO1): 555 nm | emission maximum (in CC#N): 643 nm | emission maximum (in ClCCl): 601 nm
SMILES: CN(C)c1ccc(/C=C/c2nc3cc(Br)ccc3nc2-c2ccccc2)cc1

emission maximum (in ClCCl): 443 nm
SMILES: F[B-]1(F)OC(/C=C/c2ccccc2)=CC(c2ccccc2)=[O+]1

emission maximum (in ClC(Cl)Cl): 398 nm
SMILES: CCCCn1c2ccccc2c2ccc3c4cc(-c5cccc(F)c5)ccc4n(CCCC)c3c21
